Earlier results as cited in patent publication US20090281186A1, “Composition and Method for Reducing Stress” (priority 2008, published 2009).

How the values were obtained:
[1] = system: dopamine release from the corpus straitum; serotonin levels in the hippocampus and thalamus; settings: rats, L-theanine administration
[2] = sixteen individuals; acute administration; 200 mg of L-theanine or 1 mg of alprazolam vs placebo
[3] = inositol compared with fluvoxamine
[4] = 21 patients; 12 grams of inositol per day for four weeks; compared to placebo

| SMILES | acute stress responses (psychological and physiological measures) (oral administration, 200 mg of L-theanine) | perception of stress (psychological measures) (twelve individuals, 200 mg of L-theanine before or midway through the task vs placebo) | heart rates during the stress task (twelve individuals, 200 mg of L-theanine vs placebo) | dopamine release from the corpus straitum [1] | serotonin levels in the hippocampus and thalamus [1] | effect on subjects during the experimental relaxed state [2] | effectiveness in treating panic disorders [3] | severity and frequency of panic attacks [4] |
| --- | --- | --- | --- | --- | --- | --- | --- | --- |
| CCNC(=O)CCC(N)C(=O)O [L-theanine, 2-amino-4-(ethylcarbamoyl)butyric acid] | acute stress responses were reduced | greater increase in the perception of stress in the placebo condition compared to the other conditions | heart rates were higher in the placebo condition compared to the L-theanine groups | increase dopamine release | increase serotonin levels | caused a tranquil state |  |  |
| O[C@H]1[C@H](O)[C@@H](O)[C@H](O)[C@@H](O)[C@H]1O [inositol, cis-1,2,3,5-trans-4,6-cyclohexanehexol] |  |  |  |  |  |  | equally effective | significantly decreased |
| Cc1nnc2n1-c1ccc(Cl)cc1C(c1ccccc1)=NC2 [alprazolam, reference compound] |  |  |  |  |  | had no effect |  |  |
